In US10544117B2, “5-hydroxytryptamine receptor 7 activity modulators and their method of use” (Temple University—Of the Commonwealth System of Higher …, priority 2014, dated 2020):
pIC50: −log10 of the molar value.

target: Serotonin 5HT7 receptors (Homo sapiens (Human), UniProt P34969); assay: Radiolabel Binding Studies for Serotonin 5HT7 receptors; settings: membranes of cells expressing recombinant 5HT7 receptors
Experimental: Radiolabel Binding Studies for Serotonin 5HT7 receptors, method 1:
Eleven dilutions (5× assay concentration) of the compound of the disclosure and chlorpromazine are prepared in the Assay Buffer by serial dilution to yield final corresponding assay concentrations ranging from 10 pM to 10 μM.
(§1) A stock concentration of 5 nM [^3H]LSD (lysergic acid diethyl amide) is prepared in 50 mM Tris-HCl, 10 mM MgCl2, 1 mM EDTA, pH 7.4 (Assay Buffer). Aliquots (50 μl) of radioligand are dispensed into the wells of a 96-well plate containing 100 μl of Assay Buffer. Duplicate 50-μl aliquots of the compound of the disclosure test and chlorpromazine positive control reference compound serial dilutions are added.
Membrane fractions of cells expressing recombinant 5HT7 receptors (50 μL) are dispensed into each well. The membranes are prepared from stably transfected cell lines expressing 5HT7 receptors cultured on 10-cm plates by harvesting PBS-rinsed monolayers, resuspending and lysing in chilled, hypotonic 50 mM Tris-HCl, pH 7.4, centrifuging at 20,000×g, decanting the supernatant and storing at −80° C.; the membrane preparations are resuspended in 3 ml of chilled Assay Buffer and homogenized by several passages through a 26 gauge needle before using in the assay.
The 250-μl reactions are incubated at room temperature for 1.5 hours, then harvested by rapid filtration onto 0.3% polyethyleneimine-treated, 96-well filter mats using a 96-well Filtermate harvester. Four rapid 500-μl washes are performed with chilled Assay Buffer to reduce non-specific binding. The filter mats are dried, then scintillant is added to the filters and the radioactivity retained on the filters is counted in a Microbeta scintillation counter.
Raw data (dpm) representing total radioligand binding (i.e., specific+non-specific binding) are plotted as a function of the logarithm of the molar concentration of the competitor (i.e., test or reference compound).
Radiolabel Binding Studies for Serotonin 5-HT7 receptors, method 2:
as §1, with “[^3H]-5-Hydroxytryptamine ([^3H]-5HT)” for “[^3H]LSD (lysergic acid diethyl amide)”

In order of falling pIC50:
1. CCC1(CC)CC(CCN2CCc3ccc(Cl)cc3C2)OC1=O (centres unmarked) [Entry 230070]  8.12
2. CCC1(CC)CC(CCN2CCc3ccc(F)cc3C2)OC1=O (centres unmarked) [Entry 230071]  8.00
3. CCC1(CC)CC(CCCN2CCN(c3ccccc3C(C)C)CC2)OC1=O (centres unmarked) [Entry 230062]  7.92
4. O=C1OC(CCN2CCN(c3ccc(Cl)cn3)CC2)CC12CCCCC2 (centres unmarked) [Entry 160145]  7.48
5. CCC1(CC)CC(CCCN2CCN(c3ccccc3)CC2)OC1=O (centres unmarked) [Entry 230057]  7.26
6. O=C1OC(CCN2CCN(c3ccc4[nH]ccc4c3)CC2)CC12CCCCC2 (centres unmarked) [Entry 160146]  7.19
7. O=C1OC(CCN2CCN(c3ccccc3O)CC2)CC12CCCC2 (centres unmarked) [Entry 230014]  7.11
8. O=C1OC(CCN2CCN(c3ccc4[nH]ccc4c3)CC2)CC12CCC2 (centres unmarked) [Entry 160148]  7.06
9. CCC1(CC)CC(CCCN2CCN(c3ccccn3)CC2)OC1=O (centres unmarked) [Entry 230063]  7.03
10. COc1ccccc1N1CCN(CCC2CC3(CCCC3)C(=O)O2)CC1 (centres unmarked) [Entry 230013]  6.84
11. CCC1(CC)CC(CCCN2CCN(c3ccc(C)cc3)CC2)OC1=O (centres unmarked) [Entry 230061]  6.77
12. O=C1OC(CCN2CCN(c3ccccc3O)CC2)CC12CCC2 (centres unmarked) [Entry 230016]  6.52
13. COc1ccccc1N1CCN(CCC2CC3(CCC3)C(=O)O2)CC1 (centres unmarked) [Entry 230015]  6.50
14. CCC1(CC)CC(CCCN2CCN(c3ccc(O)cc3)CC2)OC1=O (centres unmarked) [Entry 230059]  6.45
15. N#Cc1ccnc(N2CCN(CCC3CC4(CCCC4)C(=O)O3)CC2)c1 (centres unmarked) [Entry 230012]  6.36
16. Nc1cc(N2CCN(CCC3CC4(CCCCC4)C(=O)O3)CC2)ccc1[N+](=O)[O-] (centres unmarked) [Entry 160149]  6.30
17. CCC1(CC)CC(CCCN2CCN(c3ccc(C#N)cc3)CC2)OC1=O (centres unmarked) [Entry 230058]  6.02
18. O=C1OC(CCN2CCN(c3ccc4[nH]c(=O)[nH]c4c3)CC2)CC12CCCCC2 (centres unmarked) [Entry 160150]  5.91
19. O=C1OC(CCN2CCN(c3ccc4[nH]c(=O)[nH]c4c3)CC2)CC12CCC2 (centres unmarked) [Entry 160152]  5.65
20. O=C1OC(CCN2CCN(c3ccnc(Cl)c3)CC2)CC12CCCCC2 (centres unmarked) [Entry 160153]  5.36
21. CCC1(CC)C[C@H](CCN2CCN(c3ccncc3)CC2)OC1=O [Entry 230083]  5.24
22. COc1ccc(N2CCN(CC[C@H]3CC(C)(C)C(=O)O3)CC2)cc1 [Entry 230046]  5.00
23. CCC1(CC)CC(CCCN2CCN(c3ccc(OC)cc3)CC2)OC1=O (centres unmarked) [Entry 230060]  5.00
24. CCC1(CC)CC(CCN2CCN(c3ccc4nc(C)[nH]c4c3)CC2)OC1=O (centres unmarked) [Entry 230069]  5.00
25. CCC1(CC)CC(CCN2CCN(c3ccc4nc(C(F)(F)F)[nH]c4c3)CC2)OC1=O (centres unmarked) [Entry 230068]  5.00
26. COc1ccc(N2CCN(CC[C@@H]3CC(C)(C)C(=O)O3)CC2)cc1 [Entry 230039]  5.00

same assay, conditions: read-out: 5-HT7 % inhib @ 10 uM

In order of falling inhibition at 10 µM:
1. CCC1(CC)CC(CCN2CCc3ccc(Cl)cc3C2)OC1=O (centres unmarked) [Entry 230070]  100%
2. CCC1(CC)CC(CCN2CCc3ccc(F)cc3C2)OC1=O (centres unmarked) [Entry 230071]  99.3%
3. CCC1(CC)CC(CCCN2CCN(c3ccccn3)CC2)OC1=O (centres unmarked) [Entry 230063]  98.9%
4. CCC1(CC)CC(CCCN2CCN(c3ccccc3C(C)C)CC2)OC1=O (centres unmarked) [Entry 230062]  98.6%
5. CCC1(CC)CC(CCCN2CCN(c3ccccc3)CC2)OC1=O (centres unmarked) [Entry 230057]  98.5%
6. O=C1OC(CCN2CCN(c3ccc4[nH]ccc4c3)CC2)CC12CCCCC2 (centres unmarked) [Entry 160146]  97.9%
7. O=C1OC(CCN2CCN(c3ccc4[nH]ccc4c3)CC2)CC12CCC2 (centres unmarked) [Entry 160148]  96.5%
8. CCC1(CC)CC(CCCN2CCN(c3ccc(C)cc3)CC2)OC1=O (centres unmarked) [Entry 230061]  94.9%
9. O=C1OC(CCN2CCN(c3ccccc3O)CC2)CC12CCCC2 (centres unmarked) [Entry 230014]  91.5%
10. COc1ccccc1N1CCN(CCC2CC3(CCCC3)C(=O)O2)CC1 (centres unmarked) [Entry 230013]  90.9%
11. CCC1(CC)CC(CCCN2CCN(c3ccc(O)cc3)CC2)OC1=O (centres unmarked) [Entry 230059]  88.8%
12. Nc1cc(N2CCN(CCC3CC4(CCCCC4)C(=O)O3)CC2)ccc1[N+](=O)[O-] (centres unmarked) [Entry 160149]  84.7%
13. O=C1OC(CCN2CCN(c3ccccc3O)CC2)CC12CCC2 (centres unmarked) [Entry 230016]  84.7%
14. COc1ccccc1N1CCN(CCC2CC3(CCC3)C(=O)O2)CC1 (centres unmarked) [Entry 230015]  83.4%
15. CCC1(CC)CC(CCCN2CCN(c3ccc(C#N)cc3)CC2)OC1=O (centres unmarked) [Entry 230058]  78.6%
16. O=C1OC(CCN2CCN(c3ccc4[nH]c(=O)[nH]c4c3)CC2)CC12CCCCC2 (centres unmarked) [Entry 160150]  76.9%
17. N#Cc1ccnc(N2CCN(CCC3CC4(CCCC4)C(=O)O3)CC2)c1 (centres unmarked) [Entry 230012]  76.6%
18. O=C1OC(CCN2CCN(c3ccc4[nH]c(=O)[nH]c4c3)CC2)CC12CCC2 (centres unmarked) [Entry 160152]  59.5%
19. O=C1OC(CCN2CCN(c3ccnc(Cl)c3)CC2)CC12CCCCC2 (centres unmarked) [Entry 160153]  58.2%
20. COc1ccc(N2CCN(CC[C@H]3CC(C)(C)C(=O)O3)CC2)cc1 [Entry 230046]  53.5%
21. CCC1(CC)C[C@H](CCN2CCN(c3ccncc3)CC2)OC1=O [Entry 230083]  51%
22. CCC1(CC)CC(CCN2CCN(c3ccc4nc(C(F)(F)F)[nH]c4c3)CC2)OC1=O (centres unmarked) [Entry 230068]  44%
23. CCC1(CC)CC(CCCN2CCN(c3ccc(OC)cc3)CC2)OC1=O (centres unmarked) [Entry 230060]  43.6%
24. COc1ccc(N2CCN(CC[C@@H]3CC(C)(C)C(=O)O3)CC2)cc1 [Entry 230039]  42.6%
25. O=C1OC(CCN2CCN(c3ccnc(Cl)c3)CC2)CC12CCCC2 (centres unmarked) [Entry 230011]  40.3%
26. O=C1OC(CCN2CCN(c3ccc4[nH]c(=O)[nH]c4c3)CC2)CC12CCCC2 (centres unmarked) [Entry 160151]  35.9%
27. O=C1OC(CCN2CCN(c3cc(Cl)ccn3)CC2)CC12CCCC2 (centres unmarked) [Entry 230010]  33.5%
28. CS(=O)(=O)Nc1ccc(N2CCN(CCC3CC4(CCCC4)C(=O)O3)CC2)cc1 (centres unmarked) [Entry 230008]  33.2%
29. O=C1OC(CCN2CCN(c3ccc4[nH]ccc4c3)CC2)CC12CCCC2 (centres unmarked) [Entry 160147]  9%

same assay, conditions: single concentration of 10 uM; percent inhibition of radioligand binding

For `O=C1OC(CCN2CCN(c3ccc(Cl)cn3)CC2)CC12CCCCC2` (centres unmarked) [Entry 160145], the “5-HT7 % inhib @ 10 uM” value was 96.7%.
